Read-outs that look alike come from different tables or passages of the source.

The test system of assay [1] is Brachyspira pilosicoli. The conditions noted are these: for Plate count: hydrogen peroxide 3300 μM.
For assay [2], the system named is Brachyspira hyodysenteriae. The settings on record: for Plate count: hydrogen peroxide 3100 μM.
Where [3] appears, read: hydrogen peroxide at approximately 3,000 μM, 2 h.

For the compound `OO` [hydrogen peroxide], the Plate count in assay [1] (0 hr) is given as 6.00 × 10^6 CFU per ml; in assay [1] (2 hr), 3.00 × 10^1 CFU per ml; in assay [2] (0 hr), 5.0 × 10^5 CFU per ml; in assay [2] (2 hr), 9 CFU per ml. For the same compound, the reduction of count in assay [1] (setting [3]) came out at 5 logs; in assay [2] (setting [3]), 4 logs.

The values above are taken from patent publication US20080299098A1, “Broad-Spectrum Antibacterial and Antifungal Activity of Lactobacillus Johnsonii D115” (priority 2007, published 2008).
